For data set [1], the system named is NKCC1. Put plainly: Ussing chamber, bumetanide-sensitive ISC in non-CF epithelia. The class given is cell-based, human. The settings on record: WNK463 10 μM, 2 hours, amiloride, forskolin, then basolateral bumetanide. The procedure: (§1) Electrophysiologic studies. Airway epithelia were mounted in modified Ussing chambers (Physiologic Instruments) and bathed in symmetric Krebs buffer solution. The standard Krebs buffer contained (in mM): 118.9 NaCl, 25 NaHCO3, 2.4 K2HPO4, 0.6 KH2PO4, 1.2 MgCl2, 1.2 CaCl2), and 5 dextrose at 37° C., adjusted to pH 7.4 in the presence of 5% CO2. The HCO3^−-free solution contained (in mM): 135 NaCl, 2.4 K2HPO4, 0.6 KH2PO4, 1.2 MgCl2, 1.2 CaCl2), 5 HEPES, and 5 dextrose at 37° C., adjusted to pH 7.4 in nominally C02^−free environment. The Cl^−-free solution contained (in mM): 118.9 Na gluconate, 25 NaHCO3, 2.4 K2HPO4, 0.6 KH2PO4, 5 Ca gluconate, 1 Mg gluconate, 5 dextrose, at 37° C. and adjusted to pH 7.4 in the presence of 5% C02. Epithelia were voltage clamped, followed by recording of the short-circuit current (ISC) and transepithelial conductance (Gt). Exposure to either vehicle (DMSO) or WNK463 was continued during recording. The following agents were added apically (in μM): 100 amiloride, 20 uridine triphosphate (UTP), 100 4,4′-diisothiocyano-2,2′-stilbenedisulfonic acid (DIDS), 10 forskolin, and 10 CFTRinh-172. In some experiments, 100 μM bumetanide was also added to the serosal chambers.
(§2) Reducing basolateral Cl^−-entry increases CF pHASL. […] To estimate the contribution of NKCC1, we added basolateral bumetanide, and measured ΔISC. […]

Data set [2] deals with CaCC. In words: Ussing chamber, response to apical DIDS in CF epithelia. The class given is cell-based, human. As to conditions: WNK463 10 μM, 2 hours, after amiloride and UTP. The procedure: as §1
CF epithelia lack functional CFTR channels, but express CaCC. […] Next, we added DIDS, a non-specific CaCC inhibitor, and recorded the change in ISC and Gt.

Data set [3] concerns primary CF epithelia. In words: Liquid absorption assay. The settings on record: WNK463 10 μM, 4 hours. The class given is cell-based, human. The procedure: Liquid absorption assay. Liquid absorption was measured using a previously reported method (40). Briefly, airway epithelia were transferred to 500 μl of fresh basolateral solution containing either vehicle or 10 μM WNK463. The apical side was suctioned dry and 30 μl of Krebs buffer solution was introduced. Of note, the apical solution had the same ionic composition, osmolality, and pH as the basolateral solution. After 4 hours, the apical liquid was collected with micropipettes (Drummond Microcaps #1-000-1000) and the height of the liquid column was recorded. Volume of liquid was calculated as the product of height and micropipette cross-sectional area. The difference between the original and 4-hour liquid volumes was used to calculate the rate of absorption (μl·cm^−2·h^−1).

In data set [4] the test system is primary cultures of non-CF epithelia. In words: pHASL measurement (SNARF-1-dextran) in primary non-CF airway epithelia. The format is cell-based, human. As to conditions: WNK463 10 μM, 2 hours, 25 mM HCO3− and 5% CO2. The text has this: (§3) Cell culture. Primary cultures of differentiated airway epithelia were obtained without passage from multiple human donors as previously reported (37). Briefly, proximal bronchi were dissected, cut into small pieces, and enzymatically digested. Epithelial cells were isolated and seeded onto collagen-coated inserts (Costar, 3470; Falcon, 353180). Epithelia were differentiated at the air liquid interface for 3 weeks or more prior to assay. During the course of this study, new CF lung donors became scarce, partly due to more individuals taking highly-active CFTR modulators. To manage this situation, epithelial cells from previous CF donors cryopreserved at PO were thawed and differentiated. Whenever feasible, studies followed a paired design so that epithelia from the same donor were assayed under control and treatment conditions.
pHASL measurement. pHASL was measured using a fluorescent ratiometric pH indicator, SNARF-1, conjugated to 70 kD dextran (Thermo Fisher Scientific). SNARF-1-dextran was delivered as a powder to the apical side and allowed to distribute into ASL for 1 hour. […] SNARF-1 was excited at 514 nm, and emissions at 580 nm and 640 nm were recorded. The ratio of fluorescence intensities (580/640) was obtained to calculate pH values using calibration curves constructed from colorless standard pH solutions. […]

In data set [5] the test system is S. aureus. In words: S. aureus killing assay (ASL antimicrobial activity, bacteria-coated grids). The class given is cell-based. As to conditions: primary CF epithelia; WNK463 10 μM, 2 hours. Here is the method:
S. aureus killing assay. ASL antimicrobial activity was assessed using bacteria-coated grids. Preparation, imaging, and quantification were performed as previously described (13). Briefly, S. aureus isolate SA-CL37 was grown to log-phase, labeled with biotin, and conjugated to streptavidin-coated gold electron microscopy grids. The grids were placed on the apical side of airway epithelia in direct contact with ASL. After incubating for 15 minutes in humidified, 5% CO2 chambers at 37° C., the grids were retrieved, rinsed with PBS, and immersed in SYTO9 and propidium iodide to determine bacterial viability (Live/Dead Bacterial Viability Assay, Invitrogen). The grids were washed, fixed with 4% paraformaldehyde, and imaged on the Olympus Fluoview FV 3000 confocal microscope. Images were analyzed for numbers of live and dead bacteria using the ImageJ software. For each grid, three separate regions were imaged. Two grids were assessed per epithelium and the results averaged to obtain % S. aureus killing.

Data set [6] deals with TNFα/IL-17-treated CF epithelia. Put plainly: pHASL measurement in TNFα/IL-17-treated CF epithelia. The class given is cell-based, human. The settings on record: CF epithelia treated with TNFα 10 ng/ml and IL-17 20 ng/ml for 48 hours, 2 hours. The procedure:
To assess cytokine-induced responses, epithelia were treated with a combination of 10 ng/ml TNFα (R&D Systems) and 20 ng/ml IL-17 (R&D Systems). Both cytokines were added to the basolateral media for 48 hours prior to assessments. All studies were approved by the University of Iowa Institutional Review Board.
(§4) pHASL measurement. pHASL was measured using a fluorescent ratiometric pH indicator, SNARF-1, conjugated to 70 kD dextran (Thermo Fisher Scientific). SNARF-1-dextran was delivered as a powder to the apical side and allowed to distribute into ASL for 1 hour. Imaging was performed on a laser-scanning confocal microscope (Zeiss LSM 880). SNARF-1 was excited at 514 nm, and emissions at 580 nm and 640 nm were recorded. The ratio of fluorescence intensities (580/640) was obtained to calculate pH values using calibration curves constructed from colorless standard pH solutions. The microscope chamber housing epithelia maintained a humidified environment at 37° C. 5% CO2 was added to the chamber environment whenever the basolateral side was immersed in a HCO3^− containing buffer solution, but removed when a HCO3^−-free (HEPES) buffer solution was used.

Data set [7] concerns primary CF epithelia. Put plainly: ASL viscosity measurement (FRAP). As to conditions: WNK463 10 μM, 2 hours. The class given is cell-based, human. The procedure: ASL viscosity measurement. ASL viscosity was measured using the fluorescence recovery after photobleaching (FRAP) method as previously reported (12). Briefly, powdered FITC-dextran (70 kD, Sigma) was delivered to the apical side of airway epithelia, and allowed to equilibrate for 2 hours. Epithelia were moved to a humidified chamber on the Zeiss LSM 880 confocal microscope. The chamber maintained a temperature of 37° C. and an atmosphere of 5% CO2. After baseline imaging, a small region of interest was photobleached. Time series fluorescence recovery images were collected until maximal recovery was reached. For each epithelium, 4-5 curves from different locations were obtained and averaged. The time constant (T) was calculated from the fluorescence recovery curves using regression, and expressed as ASL value normalized to saline (τASL/τsaline).

Data set [8] has as its system NKCC1. In words: Ussing chamber, bumetanide-sensitive ISC in CF epithelia. The class given is cell-based, human. The settings on record: WNK463 10 μM, 2 hours, amiloride, UTP, then basolateral bumetanide. Here is the method: as §1, §2
Data set [9] concerns primary cultures of differentiated CF airway epithelia. Put plainly: pHASL measurement (SNARF-1-dextran) in primary CF airway epithelia. The class given is cell-based, human.
Description: as §3, §4

Data set [10] concerns primary CF epithelia. In words: Ciliary beat frequency measurement. The class given is cell-based, human. As to conditions: WNK463 10 μM, 2 hours. The procedure:
Ciliary beat frequency measurement. Phase contrast videos of ciliary motion were obtained using the Zeiss Axio Observer microscope at 50 frames per second at room temperature. A total of 256 frames (5.1 second videos) were obtained for each field. A minimum of five random fields per culture were selected. Whole field gaussian mean ciliary beat frequencies (CBF) were analyzed using the Sisson-Ammons video analysis software (SAVA; Ammons Engineering, Mt. Morris, MI) (41).

For data set [11], the system named is CFTR. In words: Ussing chamber, response to CFTRinh-172 in non-CF epithelia. The format is cell-based, human. The settings on record: WNK463 10 μM. The procedure:
as §1
WNK463 reduces electrogenic Cl^− secretion. CFTR is the main route for anion exit across the apical membrane of airway epithelia. Whether WNK inhibition alters CFTR activity in airway epithelia is not well-established. To test, we exposed non-CF epithelia to WNK463 for 2 hours, and assayed in Ussing chambers containing symmetric Krebs solution (118 mM Cl^− and 25 mM HCO3^−, gassed with 5% CO2). After clamping transepithelial voltage, we recorded ISC and Gt, and elicited responses to selective channel inhibitors or activators (FIGS. 5A and 5B). We added amiloride followed by DIDS to abolish ENaC-mediated Na^+ absorption and Ca^2+-activated Cl^− channel (CaCC)-mediated anion secretion, respectively. Next, we added forskolin to increase cellular cAMP and thereby phosphorylate and activate CFTR channels. We concluded with CFTRinh-172, an inhibitor of CFTR. We assessed the response to CFTRinh-172 and used it to estimate CFTR channel activity. WNK463 reduced ΔISC-CFTR by ˜ 50% (FIG. 5C).

The conditions of data set [12]: rat model of hypertension; cited from earlier work.
Data set [13] deals with airway epithelia. The settings on record: previous studies in airway epithelia; cited from earlier work.
Setting [14] is: 2 hours, symmetric Krebs solution with Cl− and HCO3−.

Structures are written as SMILES.

Consider `CC(C)(C)NC(=O)c1cncn1C1CCN(c2ccc(-c3nnc(C(F)(F)F)o3)cn2)CC1` [WNK463], for which the “bumetanide-sensitive ISC” value in data set [1] and in [8] was “reduced” throughout. For the same compound, the “DIDS-sensitive ΔGt” value in data set [2] is given as “slightly increased”. Also, the “DIDS-sensitive ΔISC” value in data set [2] is recorded as “decreased”. For the same compound, in data set [3], the “rate of apical liquid absorption” value is on record as “did not alter”. Moreover, the pHASL result in data set [4] was “increased”; in [6] (WNK463 10 μM), “further increased”; in [9] (CF epithelia, WNK463 10 μM, 2 hours, in the absence of basolateral Cl−), “failed to alkalinize”; in data set [9] (primary CF epithelia, WNK463 10 μM, 2 hours, 25 mM HCO3− and 5% CO2) it was “increased”. Also, the “ASL-mediated S. aureus killing” value in [5] is given as “increased”. In data set [7], the “ASL viscosity (τASL/τsaline)” value is on record as “decreased”. Moreover, the “pHASL, time course” value in data set [9] (primary CF epithelia, continued exposure up to 24 hours versus 2 hours) is on record as “did not further alkalinize”. Besides, in data set [9] (primary CF epithelia, nominally HCO3−/CO2-free environment (HEPES), WNK463 10 μM), the pHASL response result is “disappeared”. Moreover, the ciliary beat frequency result in [10] is “increased”. Also, the ΔISC-CFTR entry in data set [11] (Cl−-free solution) is “remained unchanged”; in data set [11] (symmetric HCO3−-free solution), “reduced”. Also, in [11] (setting [14]), the “reduction of ΔISC-CFTR” value is on record as about 50%. Also, the ΔGt-CFTR entry in data set [11] (setting [14]) is listed as “remained unchanged”. Moreover, in data set [12], the adverse effects entry is recorded as “adverse effects”.

For `CCCCNc1cc(C(=O)O)cc(S(N)(=O)=O)c1Oc1ccccc1` [bumetanide], the “intracellular [Cl−]” value in data set [13] is “decreases”. The pHASL entry in data set [6] (bumetanide 100 μM) is given as “further alkalinized”; in [9] (CF epithelia, 2 hours after exposure to basolateral bumetanide), “increased”.

With `O=C(Nc1ccc(Oc2ccc(Cl)cc2)c(Cl)c1)c1cc(I)cc(I)c1O` [rafoxanide, Rafoxanide], in data set [9] (primary CF epithelia, rafoxanide applied for 2 hours), the pHASL entry is given as “increased”.
